Data taken from US9526737B2, “Oxysterols for activation of hedgehog signaling, osteoinduction, antiadipogenesis, and Wnt signaling” (THE REGENTS OF THE UNIVERSITY OF CALIFORNIA, priority 2007, dated 2016).
Read-outs that look alike come from different tables or passages of the source.

How the values were obtained:
[1] = tested on: hedgehog signaling pathway; test: Hedgehog signaling pathway activation (8X-Gli reporter, Gli 1 and Patched Q-RT-PCR, cyclopamine inhibition); assay type: cell-based; settings: M2 cells
Procedure: M2-10B4 bone marrow stromal cells were transfected with an 8XGli luciferase reporter or the empty vector (pGL3b). Cells were subsequently treated with control vehicle, 5 μM Oxy49, or 400 ng/ml recombinant human sonic hedgehog (Shh) as positive control. After 48 hours of treatments, reporter luciferase activity was measured and normalized to Renilla luciferase activity (See FIG. 14). […] M2-10B4 bone marrow stromal cells were transfected with an 8XGli luciferase reporter or the empty vector (pGL3b). Cells were subsequently treated with control vehicle, 5 μM Oxy34, or 400 ng/ml recombinant human sonic hedgehog (Shh) as positive control. After 48 hours of treatments, reporter luciferase activity was measured and normalized to Renilla luciferase activity (See FIG. 15). […] After 48 hours of treatments, mRNA was extracted from cells and analyzed by Q-RT-PCR for expression of hedgehog target genes Gli 1 and Patched (See FIGS. 16A and 16B). […] Luciferase reporter activity using a reporter construct with 8X-Gli binding sites • 2. Q-RT-PCR analysis of the induction of hedgehog pathway target gene expression Gli 1 and Patched • 3.

[2] = tested on: Naked Cuticle 2 (Nkd2) mRNA expression; assay type: cell-based; settings: M2 cells pre-treated 2 h with inhibitor, then 5 μM SS for 48 h
Procedure: (§1) Total RNA was extracted with the RNA isolation kit from Stratagene (La Jolla, Calif.) according to the manufacturer's instructions. RNA was DNase-treated using the DNA-free kit from Ambion, Inc. (Austin, Tex.). 3 μg of RNA was reverse-transcribed using reverse transcriptase from Stratagene (La Jolla, Calif.) to make single stranded cDNA. The cDNAs were mixed with Qi SYBR Green Supermix from Bio-Rad Laboratories (Hercules, Calif.) for quantitative RT-PCR using a Bio-Rad I-cycler IQ quantitative thermocycler. All PCR samples were prepared in triplicate or quadruplicate. Each sample was added to duplicate wells of a 96-well plate. After 40 cycles of PCR, melt curves were analyzed in order to ensure primer specificity, and the identity of all PCR products were verified by sequencing and comparing with the complete mRNA sequence obtained from PubMed's GenBank. Fold changes in gene expression were calculated using the ΔΔCt method (14). All primers were designed using the Beacon Designer software from Bio-Rad Laboratories (Hercules, Calif.). Primers used are as follows: OCN (5′-[…]-3′ (SEQ ID NO: 1) and 5′-[…]-3′ (SEQ ID NO: 2)), Axin2(5′[…]-3′ (SEQ ID NO: 3) and 5′-[…]-3′ (SEQ ID NO: 4)), Cyclin D1(5′-[…]-3′ (SEQ ID NO: 5) and 5′-[…]-3′ (SEQ ID NO: 6)), NKD2 (5′-[…]-3′ (SEQ ID NO: 7) and 5′[…]-3′ (SEQ ID NO: 8)), WIF-1 (5′-[…]-3′ (SEQ ID NO: 9) and 5′-[…]-3′ (SEQ ID NO: 10)), and GAPDH (5′-[…]-3′ (SEQ ID NO: 11) and 5′-[…]-3′ (SEQ ID NO: 12)).
(§2) M2 cells were treated with 5 μM SS, 200 ng/ml Shh, or control vehicle for 48 h. RNA was isolated and analyzed by Q-RT-PCR for Nkd2 (E) and WIF-1 (F) expression (See FIGS. 4E and 4F).
(§3) M2 cells were pre-treated for 2 h with vehicle or cyclopamine (Cyc) at the concentrations indicated. Next, cells were treated with 5 μM SS or control vehicle for 48 h. RNA was isolated and analyzed for Nkd2 (A) and WIF-1 (B) expression by Q-RT-PCR (See FIGS. 5A and 5B).
(§4) M2 cells were pre-treated for 2 h with Dkk-1 or vehicle. Next, cells were treated with 5 μM SS or control vehicle for 48 h. RNA was isolated and analyzed for Nkd2 (C), Wif-1 (D), and Ptch (E) expression (See FIGS. 5C-5E).
(§5) M2 cells were pre-treated for 2 h with 5 μM LY, 2.5 μM Wm, or vehicle followed by treatment with 5 μM SS or control vehicle for 48 h. RNA was isolated and analyzed for Nkd2 (FIG. 7E) and Wif-1 (FIG. 7F) expression.

[3] = tested on: Wnt Inhibitory factor-1 (Wif-1) mRNA expression; assay type: cell-based; settings: M2 cells pre-treated 2 h with inhibitor, then 5 μM SS for 48 h
Procedure: as §1, §2, §3, §4, §5

[4] = tested on: Patched (Ptch) mRNA expression; test: Q-RT-PCR for Patched (Ptch) mRNA expression; assay type: cell-based; settings: M2 cells pre-treated 2 h with inhibitor, then 5 μM SS for 48 h
Procedure: (§6) Total RNA was extracted with the RNA isolation kit from Stratagene (La Jolla, Calif.) according to the manufacturer's instructions. RNA was DNase-treated using the DNA-free kit from Ambion, Inc. (Austin, Tex.). 3 μg of RNA was reverse-transcribed using reverse transcriptase from Stratagene (La Jolla, Calif.) to make single stranded cDNA. The cDNAs were mixed with Qi SYBR Green Supermix from Bio-Rad Laboratories (Hercules, Calif.) for quantitative RT-PCR using a Bio-Rad I-cycler IQ quantitative thermocycler. All PCR samples were prepared in triplicate or quadruplicate. Each sample was added to duplicate wells of a 96-well plate. After 40 cycles of PCR, melt curves were analyzed in order to ensure primer specificity, and the identity of all PCR products were verified by sequencing and comparing with the complete mRNA sequence obtained from PubMed's GenBank. Fold changes in gene expression were calculated using the ΔΔCt method (14). All primers were designed using the Beacon Designer software from Bio-Rad Laboratories (Hercules, Calif.). […]
M2 cells were pre-treated for 2 h with Dkk-1 or vehicle. […] RNA was isolated and analyzed for Nkd2 (C), Wif-1 (D), and Ptch (E) expression (See FIGS. 5C-5E).

[5] = tested on: M2-10B4 marrow stromal cells; test: 45Ca incorporation assay (matrix mineralization); assay type: cell-based
Procedure: ^45Ca incorporation assay as a measure of matrix mineralization in cell monolayers was performed as previously described (45).
^45Ca incorporation assay (see Example above) was used to measure mineralization in M2 cells pre-treated with 1 μg/ml Dkk-1 or vehicle for 2 h, and then treated with control vehicle or 2.5 μM SS 12 days (See FIG. 2D).
^45Ca incorporation assay was used to measure mineralization in M2 cells pre-treated with various doses of LY, 1 μM Wm, or vehicle for 2 h, and then treated with 5 μM SS or control vehicle for 14 days (See FIG. 7C).
M2-10B4 cells were treated for 14 days with control vehicle (C) or various concentrations (μM) of oxysterols as indicated. SS refers to 20S-hydroxycholesterol+22S-hydroxycholesterol in combination. After 12 days with refeeding every 5th day, ^45Ca was added and on day 14, ^45Ca incorporation was measured (See FIG. 18).

[6] = tested on: bone sialoprotein (BSP) mRNA expression; test: Q-RT-PCR for bone sialoprotein (BSP) mRNA expression; assay type: cell-based; settings: M2-10B4 cells
Procedure: as §6, with “(14).” for “(14). All primers were designed using the Beacon Designer software from Bio-Rad Laboratories (Hercules, Calif.).”
M2-10B4 cells were treated with control vehicle (C) or various doses (μM) of oxysterols (Oxy34 or Oxy49) as indicated. […] After 6 days of treatments, mRNA was extracted from cells and analyzed by Q-RT-PCR for BSP and GAPDH expression (See FIG. 17).
After 48 hours of treatment, RNA was isolated and analyzed for BSP expression by Q-RT-PCR as a measure of osteogenic differentiation (See FIG. 10). […]

[7] = tested on: marrow stromal cells; test: Osteoinductive properties (osteoblast differentiation markers: ALP activity, osteocalcin mRNA, mineralization); assay type: cell-based; settings: induction of osteoblast differentiation markers
Source text: Oxysterols discussed in this application include those designated as Oxy22, Oxy26, Oxy27, Oxy28, Oxy39, Oxy40, Oxy41, Oxy42, Oxy48, Oxy49, Oxy20, Oxy34, Oxy36, Oxy38, Oxy50, Oxy51, Oxy52, and Oxy53. At least the following oxysterols have been identified as osteoinductive: Oxy22, Oxy26, Oxy27, Oxy28, Oxy39, Oxy40, Oxy41, Oxy42, Oxy48, Oxy49, Oxy50, Oxy51, Oxy52, and Oxy53. The osteoinductive properties of these oxysterols is shown by their ability to induce the expression of various osteoblast differentiation markers, including alkaline phosphatase activity, osteocalcin mRNA expression, and mineralization. These oxysterols are activators of the hedgehog signaling pathway.

[8] = tested on: M2-10B4 marrow stromal cells; test: Alkaline phosphatase (ALP) activity assay
Procedure: The protocol is a modification of alkaline phosphatase assay kit from Sigma. Cells are cultured in 24-well tissue culture plates. After treatments with test agents, cells are rinsed twice with PBS and scraped into 200 ml of lysis buffer (0.2% NP-40 in 1 mM MgCl2) and sonicated for 10 seconds. Next, 1 ml of reaction mixture is added to each well. Reaction mixture is 221 alkaline buffer (Sigma): stock substrate solution (1:1). Stock substrate solution is prepared by dissolving 40 mg of Sigma 104 phosphatase substrate in 10 ml of ddH2O. After addition of reaction mixture to lysed cells, incubation is performed for 30 minutes at 37 C. […] The reaction is stopped by the addition of 12 ml of 1N NaOH to each well, and absorbance is determined at 405 nm. Alkaline phosphatase activity is calculated using p-nitrophenol as a standard, according to Sigma kit's instructions. Results are normalized to total protein in each well determined using the Bio-Rad protein assay solution (Bio-Rad Laboratories).
M2-10B4 marrow stromal cells were treated with oxysterols at various doses for 3 days after which they were collected and analyzed by calorimetric assay for alkaline phosphatase activity (a marker of osteoblastic differentiation) (Table 1); the alkaline phosphatase assay described above was used.
M2-10B4 marrow stromal cells were treated with oxysterols at various doses for 3 days after which they were collected and analyzed by colorimetric assay for alkaline phosphatase activity (a marker of osteoblastic differentiation) (Table 2); the alkaline phosphatase assay described above was used.
M2-10B4 bone marrow stromal cells were treated in culture with control vehicle (C) or various oxysterol (Oxy) molecules as indicated at either 1.25 (1) or 2.5 (2) μM concentrations. After 3 days of treatment, alkaline phosphatase activity as a measure of early osteogenic differentiation of cells was measured in whole cell lysates (See FIG. 9 and Table 3); the alkaline phosphatase assay described above was used.

[9] = tested on: osteocalcin (OCN) mRNA expression; test: Q-RT-PCR for osteocalcin (OCN) mRNA expression; assay type: cell-based; settings: M2 cells pre-treated 2 h with inhibitor, then SS
Procedure: as §6
M2 cells were pre-treated with vehicle or 1 μg/ml Dkk-1 for 2 h followed by treatment with control vehicle or 5 μM SS for 6 days. RNA was isolated and analyzed by Q-RT-PCR for OCN expression (See FIG. 2E).
RNA was analyzed for OCN expression by Q-RT-PCR and normalized to GAPDH (p<0.01 for Control versus SS and for SS versus SS+LY and SS+Wm) (See FIG. 7B).

[10] = tested on: Runx2 DNA binding activity; test: Runx2 DNA binding activity by EMSA analysis; assay type: cell-based; settings: M2 cells
[11] = M210B4, 72 h, read-out: Fold Induction in alkaline phosphatase activity compared to control untreated cells
[12] = M210B4, 72 h, read-out: Fold Induction in alkaline phosphatase activity over control untreated cells

O=c1cc(N2CCOCC2)oc2c(-c3ccccc3)cccc12 [LY, LY 294002]
Inhibition of oxysterol-induced hedgehog pathway activation [1]: did not inhibit

CC1=C2C[C@H]3[C@@H](CC=C4C[C@@H](O)CC[C@@]43C)[C@@H]2CC[C@]12O[C@@H]1C[C@H](C)CN[C@H]1[C@H]2C [cyclopamine, reference compound]
Inhibition of oxysterol-induced Nkd2 expression [2]: did not inhibit
Inhibition of oxysterol-induced Wif-1 expression [3]: completely blocked
Inhibition of oxysterol-induced Patched (Ptch) mRNA expression [4]: completely abolished

COC[C@H]1OC(=O)c2coc3c2[C@@]1(C)C1=C(C3=O)[C@@H]2CCC(=O)[C@@]2(C)C[C@H]1OC(C)=O [Wm, wortmannin]
Inhibition of oxysterol-induced hedgehog pathway activation [1]: did not inhibit

C=C(C)CCC[C@](C)(O)[C@H]1CC[C@H]2[C@@H]3C[C@H](O)[C@H]4C[C@@H](O)CC[C@]4(C)[C@H]3CC[C@@]21C [Oxy49, (3S,5S,6S,8R,9S,10R,13S,14S,17S)-17-((S)-2-Hydroxy-6-methylhept-6-en-2-yl)-10,13-dimethylhexadecahydro-1H-cyclopenta[a]phenanthrene-3,6-diol]
Mineralization (45Ca incorporation) ([5]; M2-10B4 cells treated for 14 days): increased mineralization
BSP expression [6]: induce BSP expression
Osteoinductive property [7]: osteoinductive
fold induction at 2.5 µM [8, 11]: 170
fold induction at 5 µM [8, 11]: 204
fold induction at 1.25 µM [8, 12]: 46
fold induction at 2.5 µM [8, 12]: 68

B1: Dkk-1: recombinant mouse Dickkopf related protein 1; LRP5/6 inhibitor, Wnt signaling inhibitor (protein, UniProt O54908 32-272, looked up)
Dickkopf-related protein 1: TLNSVLINSNAIKNLPPPLGGAGGQPGSAVSVAPGVLYEGGNKYQTLDNYQPYPCAEDEECGSDEYCSSPSRGAAGVGGVQICLACRKRRKRCMRHAMCCPGNYCKNGICMPSDHSHFPRGEIEESIIENLGNDHNAAAGDGYPRRTTLTSKIYHTKGQEGSVCLRSSDCAAGLCCARHFWSKICKPVLKEGQVCTKHKRKGSHGLEIFQRCYCGEGLACRIQKDHHQASNSSRLHTCQRH
Inhibition of oxysterol-induced mineralization (45Ca incorporation) ([5]; M2 cells pre-treated 2 h with inhibitor, then SS for 12-14 days): Complete and below baseline level inhibition
Inhibition of oxysterol (SS)-induced OCN mRNA expression [9]: did not inhibit
Inhibition of oxysterol-induced Runx2 DNA binding activity [10]: did not inhibit
Inhibition of oxysterol-induced Nkd2 expression [2]: almost completely inhibited
Inhibition of oxysterol-induced Wif-1 expression [3]: only minimally inhibited
Inhibition of oxysterol-induced Patched (Ptch) mRNA expression [4]: did not inhibit
Inhibition of BMP-2-induced ALP activity ([8]; M2 cells pre-treated 2 h with 1 or 2 μg/ml Dkk-1, then 50 ng/ml BMP-2 for 3 days): only significantly inhibited by using the higher concentration
Inhibition of Shh-induced ALP activity ([8]; M2 cells pre-treated 2 h with inhibitor, then 200 ng/ml Shh for 3 days): partially inhibited
Inhibition of oxysterol-induced ALP activity ([8]; M2 cells pre-treated 2 h with inhibitor, then 2.5 μM SS for 3 days): partial but significant inhibition
ALP activity, agent alone ([8]; M2 cells, Dkk-1 1 or 2 μg/ml without oxysterol): no observed effect
